Here are results for 25 compounds from ChEMBL document CHEMBL1201862, “PubChem BioAssay data set” (2004).

Among the test systems are DMS-114; M19-MEL; SNB-78; HOP-18; RXF 631; DMS-273; XF498; LXFL 529; DLD-1.
Common to all, as to assay: NCI-60 cell line screen, 48 h

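In this assay, cells in 96-well plates receive the compound at five concentrations for 48 hours. Endpoints are linearly interpolated between the surrounding concentrations. GI50: concentration for 50% inhibition of growth.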 Active and inactive are the calls of the source. No stated cut-off is given here; in the data, active = GI50 up to about 1.1 µM and inactive = higher.

`O=[N+]([O-])c1cccnc1S(=O)(=O)c1ccccc1`: the GI50 in the experiment with DMS-114 was 3.18 µM (inactive); with M19-MEL, 13.5 µM (inactive); with SNB-78 it was 11.2 µM (inactive); in the experiment on HOP-18 it was 12.9 µM (inactive); in the experiment with RXF 631 it was 2.86 µM (inactive); in the experiment with DMS-273, 7.87 µM (inactive). Besides, the GI50 in the experiment with XF498 is 13.1 µM (inactive); in the experiment on LXFL 529 it was 2.4 µM (inactive); with DLD-1, 2.49 µM (inactive).
Take `O=C(O)Cn1c(=O)[nH]c(=O)c2[nH]cnc21`: the GI50 with DMS-114, with M19-MEL, with SNB-78, with HOP-18, in the experiment with RXF 631 and in the experiment with DMS-273 was > 100 µM (inactive) in each case. The GI50 in the experiment with LXFL 529 and in the experiment on DLD-1 was > 100 µM (inactive) each time.
For `CC(C)/C=C1\CCC(CN(C)C)C1=O` (stereo unspecified), the GI50 in the experiment on DMS-114 is 3.19 µM (inactive); in the experiment on M19-MEL it was 9.27 µM (inactive); in the experiment with SNB-78 it was 4.51 µM (inactive); in the experiment on HOP-18 it was 3.36 µM (inactive); in the experiment on XF498, 1.91 µM (inactive); with LXFL 529, 1.5 µM (inactive). For the same compound, the GI50 in the experiment on DLD-1 was 1.67 µM (inactive).
Regarding `O=C(NCC(=O)N1CCOC1=O)OCc1ccccc1`, the GI50 in the experiment on DMS-114, in the experiment with M19-MEL, in the experiment with SNB-78, with HOP-18, with DMS-273 and with XF498 was > 100 µM (inactive) in each case. For the same compound, the GI50 with DLD-1 was > 100 µM (inactive).
Consider `CC(=O)OC1CCn2nnc(CO[Si](C)(C)C(C)(C)C)c21` (stereo unspecified), for which the GI50 with DMS-114, in the experiment with HOP-18, in the experiment on DMS-273, in the experiment with XF498, in the experiment on LXFL 529 and in the experiment on DLD-1 was > 100 µM (inactive) throughout.
In the case of `OC1=CN=C(c2ccccc2)Oc2ccccc21`, the GI50 in the experiment with DMS-114 was > 100 µM (inactive); in the experiment with M19-MEL, > 100 µM (inactive); in the experiment with SNB-78 it was 80.4 µM (inactive); in the experiment on RXF 631, > 100 µM (inactive); in the experiment on DMS-273 it was > 100 µM (inactive); in the experiment on LXFL 529 it was > 100 µM (inactive). The GI50 in the experiment on DLD-1 is > 100 µM (inactive).
`COC(=O)N/N=C(\C)C(CN1CCCCC1)C(C1=C(O)c2ccccc2OC1)c1ccccc1` (stereo unspecified): the GI50 with DMS-114, in the experiment on M19-MEL, with SNB-78, with HOP-18, in the experiment with DMS-273 and with XF498 was > 100 µM (inactive) in each case. The GI50 in the experiment with LXFL 529 and with DLD-1 was > 100 µM (inactive) each time.
As to `Cc1cc(N(CCC#N)S(=O)(=O)c2ccccc2)ccc1/C=C1\N=C(c2ccc(Cl)cc2)OC1=O`, the GI50 with DMS-114, in the experiment with SNB-78, in the experiment on DMS-273, in the experiment on XF498, in the experiment with LXFL 529 and in the experiment with DLD-1 was > 100 µM (inactive) in each case.
As for `CN(O)C(=O)Cc1ccccc1`, the GI50 in the experiment with DMS-114, in the experiment on M19-MEL, with SNB-78, in the experiment with DMS-273, with XF498 and in the experiment on LXFL 529 was > 100 µM (inactive) throughout. For the same compound, the GI50 in the experiment on DLD-1 is > 100 µM (inactive).
With `C/C(=C\CNc1ncnc2c1ncn2C1CCCCO1)COP(=O)(O)O` (stereo unspecified), the GI50 in the experiment on DMS-114, in the experiment with M19-MEL, in the experiment with SNB-78, with HOP-18, in the experiment on RXF 631 and in the experiment with DMS-273 was > 100 µM (inactive) each time. Also, the GI50 with XF498, in the experiment with LXFL 529 and in the experiment on DLD-1 was > 100 µM (inactive) in each case.
In the case of `CC(C)(C)c1ccc2c(c1)C(O)(c1ccccc1)c1cc(C(C)(C)C)ccc1C2(O)C(F)(F)F` (stereo unspecified), the GI50 in the experiment with DMS-114 is 2.04 µM (inactive); in the experiment on M19-MEL it was 1.85 µM (inactive); with HOP-18, 2.2 µM (inactive); in the experiment with DMS-273, 1.74 µM (inactive); in the experiment with XF498 it was 1.53 µM (inactive); in the experiment with LXFL 529, 1.97 µM (inactive). For the same compound, in the experiment on DLD-1, the GI50 is 2.03 µM (inactive).
As to `COc1ccc2c(c1)N1CCc3cc(OC)c(OC)cc3C1C2` (stereo unspecified), the GI50 is 37.6 µM (inactive) with DMS-114; 41.2 µM (inactive) with M19-MEL; > 100 µM (inactive) in the experiment with SNB-78; > 100 µM (inactive) in the experiment on HOP-18; 43.3 µM (inactive) with DMS-273; 26.5 µM (inactive) with XF498. Moreover, the GI50 in the experiment on LXFL 529 was 34 µM (inactive); in the experiment with DLD-1, 39.7 µM (inactive).
On to `O=c1[nH]c(=O)n(C2CC(O)C(CO)O2)cc1C#Cc1ccc(F)cc1` (stereo unspecified), for which the GI50 in the experiment with DMS-114, in the experiment with M19-MEL, in the experiment on SNB-78, in the experiment with HOP-18, with DMS-273 and in the experiment on XF498 was > 100 µM (inactive) each time. In addition, the GI50 with LXFL 529 and with DLD-1 was > 100 µM (inactive) each time.
For `N=C(N)NNC(=O)CCn1[nH]c(=O)c(Cl)c(Cl)c1=O`, the GI50 in the experiment with DMS-114, in the experiment with M19-MEL, in the experiment with HOP-18, in the experiment with RXF 631, in the experiment with DMS-273 and in the experiment with XF498 was > 100 µM (inactive) in each case. The GI50 in the experiment with LXFL 529 and in the experiment with DLD-1 was > 100 µM (inactive) throughout.
Take `Cc1ccc(NC(=O)CSc2nnc(-c3ccc(/N=C\c4ccc(Cl)cc4)cc3)o2)cc1`: the GI50 in the experiment with DMS-114, in the experiment on M19-MEL, with SNB-78, in the experiment with HOP-18, in the experiment with DMS-273 and with XF498 was > 100 µM (inactive) throughout. In addition, the GI50 in the experiment with LXFL 529 was > 100 µM (inactive).
As to `C=C=C(CC)C(C(=O)OC)N(CC)CC` (stereo unspecified), the GI50 in the experiment with DMS-114, in the experiment on M19-MEL, in the experiment on SNB-78, with HOP-18, in the experiment on RXF 631 and in the experiment with XF498 was > 100 µM (inactive) throughout. The GI50 in the experiment on LXFL 529 and with DLD-1 was > 100 µM (inactive) throughout.
For the compound `C[n+]1c2ccccc2cc2c(CNC(CCCNC(=N)N)C(=O)O)cccc21` (stereo unspecified), the GI50 is 0.232 µM (active) in the experiment with DMS-114; 0.413 µM (active) with M19-MEL; 2.31 µM (inactive) in the experiment with SNB-78; 2.05 µM (inactive) in the experiment on HOP-18; 3.37 µM (inactive) with RXF 631; 1.59 µM (inactive) with DMS-273. The values for the GI50 in the experiment with XF498, in the experiment with LXFL 529 and in the experiment on DLD-1 were 2.07 µM (inactive), 0.733 µM (active) and 0.351 µM (active), respectively.
`O=C1[C@@H]2C(c3ccncc3)=NO[C@@H]2C(=O)N1c1ccc(Cc2ccc(N3C(=O)[C@H]4C(c5ccncc5)=NO[C@H]4C3=O)cc2)cc1`: the GI50 in the experiment on DMS-114, in the experiment with M19-MEL, in the experiment with SNB-78, in the experiment on HOP-18, with RXF 631 and with DMS-273 was > 100 µM (inactive) throughout. Further, the GI50 in the experiment with LXFL 529 was 29.3 µM (inactive); with DLD-1, > 100 µM (inactive).
Take `O=C(Nc1ccn(CCI)c(=O)n1)c1ccccc1`: the GI50 with DMS-114, in the experiment with M19-MEL, in the experiment with SNB-78, in the experiment on HOP-18, with DMS-273 and in the experiment with LXFL 529 was > 100 µM (inactive) each time. Further, in the experiment on DLD-1, the GI50 is > 100 µM (inactive).
For `O=C1OC(c2ccccc2)=N/C1=C\c1ccc2ccccc2c1`, the GI50 with DMS-114, in the experiment on M19-MEL, in the experiment with SNB-78, in the experiment on HOP-18, in the experiment on XF498 and in the experiment with DLD-1 was > 100 µM (inactive) throughout.
As to `CC(O)C(N/C=C1/N=C(c2ccccc2)OC1=O)C(=O)O` (stereo unspecified), the GI50 in the experiment with DMS-114, in the experiment with M19-MEL, with SNB-78, in the experiment with HOP-18, with RXF 631 and with DMS-273 was > 100 µM (inactive) in each case. In addition, the GI50 in the experiment with XF498, in the experiment on LXFL 529 and with DLD-1 was > 100 µM (inactive) each time.
For `CSc1nc(O)c2cn(Cc3ccccc3)nc2n1`, the GI50 in the experiment on DMS-114 was > 100 µM (inactive); in the experiment on M19-MEL it was > 100 µM (inactive); in the experiment on SNB-78 it was > 100 µM (inactive); in the experiment on HOP-18, > 100 µM (inactive); in the experiment with DMS-273 it was > 100 µM (inactive); with LXFL 529, 58.6 µM (inactive). Moreover, in the experiment on DLD-1, the GI50 is > 70.5 µM (inactive).
Regarding `CCOC(=O)c1nc(C)oc1C(F)(F)F`, the GI50 with DMS-114, in the experiment on M19-MEL, in the experiment with SNB-78, with XF498, in the experiment on LXFL 529 and with DLD-1 was > 100 µM (inactive) throughout.
Consider `COCOC1CCCC[C@@]1(OCCOCCO[C@@]1(c2ccccc2)CCCC[C@H]1OCOC)c1ccccc1` (stereo partly specified), for which the GI50 in the experiment on DMS-114 is > 100 µM (inactive); with M19-MEL it was > 100 µM (inactive); with SNB-78, 55.3 µM (inactive); in the experiment with HOP-18, > 100 µM (inactive); in the experiment on DMS-273 it was > 100 µM (inactive); with XF498 it was > 100 µM (inactive). Further, the GI50 in the experiment on LXFL 529 and with DLD-1 was > 100 µM (inactive) each time.
On to `OC(CCl)CN1CC[N+]2(CC1)CC[N+]1(CCN(CC(O)CCl)CC1)CC2` (stereo unspecified) [PROSPIDIUM CHLORIDE], for which the GI50 in the experiment with DMS-114 was 41.6 µM (inactive); with M19-MEL it was > 50 µM (inactive); in the experiment on HOP-18, > 50 µM (inactive); with DMS-273 it was > 50 µM (inactive); with XF498, > 50 µM (inactive); with LXFL 529 it was > 50 µM (inactive).
